Assays:
CT26 tumors [1] = experiment: CT26 subcutaneous tumor model, ER-886046 with radiation; type: in vivo, mice
Procedure: FIG. 1A to FIG. 1B. […] Panel shown in FIG. 1A) Average tumor sizes of the CT26 tumor-bearing mice that received 9 Gy radiation+ER-886046, 9 Gy radiation alone, or vehicle alone. Panel shown in FIG. 1B) Average animal body weight of the CT-26 tumor-bearing mice. Radiation treatment: 9 Gy single dose on day 9; ER-886046 dosing: 150 mg/kg, oral (po) administration daily from day 9 to day 32. Administration of radiation and ER-886046 to the tumor-bearing mice is indicated by the arrows and bars, respectively. N=10-12 per group. *, p<0.05, student t-test.
FIG. 2A to FIG. 2C. Tumor growth plots of the individual CT-26 tumors treated with radiation/ER-886046 or radiation alone. The animals are of the experiment described in FIG. 1A and FIG. 1B. Panel shown in FIG. 2A) Vehicle treatment group. Panel shown in FIG. 2C) Radiation plus ER-886046. N=10-12 per group. […] Radiation treatment: 9 Gy single dose on day 9; ER-886046 dosing: 150 mg/kg, oral (po) administration daily from day 9 to day 32. Each line represents an individual animal.
FIG. 3. Improved tumor growth suppression and animal survival by low dose radiation/ER-886046 compared with low dose radiation alone. Plots of animal survival status among indicated treatment groups. Radiation treatment: 3 Gy single dose on day 17; ER-886046 dosing: 150 mg/kg, po administration daily from days 17 to 45. […] N=10 per group. *, p<0.05; ***, p<0.001; Gehan-Breslow-Wilcoxon test.
(§1) Animal studies; In vitro cultured cancer cells were harvested and suspended in 100 μl of phosphate buffered saline at a cell concentration of 1.0×10^5 cells/ml and subcutaneously (sc) injected into the mice using a 26 g syringe on day 0. At the days post cell implantation as indicated in the figures, the mice were randomized based on the tumor size followed by treatments with radiation at 3 or 9 Gy dose per treatment, anti-PDL1 at 200 μg/mouse per intraperitoneal injection (ip), or anti-CTLA4 at 200 or 100 μg/mouse per ip injection with or without orally administration of ER-886046 at a dose of 150 mg/kg. The animals that were assigned to the treatment groups in individual study had close mean tumor weights in all groups. The tumor sizes were measured twice a week by a digital caliper (Mitutoyo Corp), and the volume was calculated using the formula (1×w^2)/2=mm^3, where 1 and w refer to the larger and smaller perpendicular dimensions collected at each measurement. Graphs of group tumor sizes (mean±SEM) and body weights (mean±SEM) versus time were plotted using software GraphPad Prism 6 (Lake Forest, Calif.). Student t-test and Gehan-Breslow-Wilcoxon test were used for statistical analysis.

4T1 tumors = experiment: Challenge of cured (tumor-free) mice with 4T1 cells; type: in vivo; conditions: mice cured by ER-886046 + radiation; vs control (naive) group
Text: FIG. 4A to FIG. 4C. Long lasting anti-tumor effect with a memory immune response by ER-886046/radiation treatment. Panel shown in FIG. 4A) Tumor growth in the cured mice by ER-886046 and radiation combination treatment or in the naïve Ba1B/c mice that received injection of CT26 cells. Panel shown in FIG. 4B) Tumor growth of secondarily challenged CT-26 tumors in the cured mice or in naïve mice. Panel shown in FIG. 4C) Growth of 4T1 tumors in cured mice or in naïve mice. N=9-10. Note the complete rejection of challenged CT-26 tumor and reduced growth of challenged 4T1 tumors in the combination cured mice. ***, p<0.001. 2 tailed student t-test. Note that no treatment was applied to any animals.
In case of tumor rechallenge of tumor-free mice after treatments, CT26 cells and 4T1 cells were individually sc injected into the different flanks of the same mouse, and the growth of each tumor was measured and graphed as described above. Naïve mice that received neither cancer cell injection nor drug treatment were included as controls. […] At the end of study on day 27, the mice in all treatment groups were intranasally administered luciferin and the lungs were resected and analysed for luciferase expression using IVIS instrument. Quantification of the luciferase activity in the lungs was achieved by software Living Image.

CT26 tumors [2] = experiment: Bilateral CT26 tumor model (abscopic effect); type: in vivo, mice
Procedure: FIG. 5A to FIG. 5B. Anti-tumor effect of ER-886046/radiation in a bilateral tumor model. Two similar-sized CT-26 tumors were grown in a host by injecting CT26 cells subcutaneously on both right and left flanks of Ba1B/c mice. Radiation was applied to the right flank tumor on both day 9 and day 13 as indicated by arrows in panel A. ER-886046 was administered daily po to the animals at a dose of 150 mg/kg as indicated by the bars. ER-886046 was dosed to animals from day 9 to day 27. Panel shown in FIG. 5A) Average size of the right flank tumor that received radiation and ER-886046. Panel shown in FIG. 5B) Average size of the left flank tumor that received no radiation (radiation administered only to the right flank tumor).
Abscopic effect of the combination treatment of ER-886046 and radiation in an animal model. Induction of anti-tumor immune response can be systemic and thus highly valuable for treating metastatic cancer, which has multiple lesions in one host. To mimic the large metastatic lesions in mice, we simultaneously grew CT26 tumors on both sides of an individual mouse by subcutaneously injecting cancer cells. The tumors on the right side of the mice were treated with both radiation and ER-886046. The tumors on the left side of the mice received ER-886046 only.

B16F10 melanoma tumors = experiment: B16F10 melanoma model, ER-886046 with anti-CTLA4; type: in vivo, mice
Procedure: FIG. 8A to FIG. 8B. Synergistic anti-tumor activity of ER-886046 with anti-CTLA4 in B16F10 tumors. Panel shown in FIG. 8A) Anti-tumor growth activities of anti-CTLA4 and ER-886046 in B16F10 melanoma tumors growing in C57BL/6 mice. Panel shown in FIG. 8B) Animal body weight changes of the treatment groups. Anti-CTLA4 dosing: 200 μg for the first intravenous (iv) injection on day 3 after transplantation and 100 μg for the other three iv injections on days 6, 9 and 12 as indicated by the arrows. ER-886046 dosing: 150 mg/kg, po daily administration from day 3 to day 15 as indicated by the bars. *, p<0.05; **, p<0.01; ns, not significant; student t test.
as §1

[3] = ER-886046 150 mg/kg po daily day 9-32 + radiation 9 Gy single dose day 9

C[C@H](NC(=O)c1c(C(F)F)nn(C)c1Oc1cccc(C(F)(F)F)c1)c1ccc(C(=O)O)cc1 [ER-886046]
gross health and animal body weight compared to radiation alone (CT26 tumors [1]; ER-886046 150 mg/kg po daily added to 9 Gy radiation): did not impact the gross health and animal body weight
tumors with fast progression (CT26 tumors [1]; ER-886046 150 mg/kg po daily day 9-32 + radiation 9 Gy): 1 out of 12
anti-tumor activity compared to radiation alone (CT26 tumors [1]; [3]): statistically significantly improved
tumor growth (average tumor size) (CT26 tumors [1]; [3]): sustained tumor growth inhibition until the end of the study on day 49
cure (complete tumor regression) (CT26 tumors [1]; ER-886046 150 mg/kg po daily day 9-32 + radiation 9 Gy, end of study): 9 out of 12
animal survival (CT26 tumors [1]; ER-886046 150 mg/kg po daily days 17-45 + low dose radiation 3 Gy single dose day 17, vs vehicle or radiation alone): significantly increased the animal survival
tumor recurrence in the 9 tumor-free mice (CT26 tumors [1]; cured by ER-886046 + radiation, followed for an additional 2 months): no tumor recurrence
growth of 4T1 tumors in cured mice (4T1 tumors): no rejection of the tumor, but the growth rate was significantly reduced
growth of right side tumor (radiated) (CT26 tumors [2]; ER-886046 150 mg/kg po daily day 9-27 + radiation of right flank tumor day 9 and 13, vs radiation alone or ER-886046 alone): better tumor growth suppression
growth of left side tumor (not radiated) (CT26 tumors [2]; ER-886046 150 mg/kg po daily day 9-27, radiation only to right flank tumor, vs no ER-886046 treatment): significantly reduced tumor growth rate
anti-tumor growth activity, combination (B16F10 melanoma tumors; ER-886046 150 mg/kg po daily day 3-15 + anti-CTLA4 200/100 μg days 3, 6, 9, 12): highly significant anti-tumor activity
animal body weight (B16F10 melanoma tumors; ER-886046 + anti-CTLA4 combination): No animal body weight loss
anti-tumor growth activity, single agent (B16F10 melanoma tumors; alone, ER-886046 150 mg/kg po daily day 3-15, anti-CTLA4 200 μg day 3, 100 μg days 6, 9, 12): minimal activity

— US11707448B2, “Combination therapies for the treatment of cancer” (Eisai R&D Management Co., Ltd., priority 2014, dated 2023)
